Earlier results in patent publication US20090320148A1, “OXYLIPINS FROM STEARIDONIC ACID AND GAMMA-LINOLENIC ACID AND METHODS OF MAKING AND USING THE SAME” (MARTEK BIOSCIENCES CORPORATION, priority 2006, published 2009).

What was measured:
[1] = system: cell migration; conditions: comparison with the DHA-derived oxylipin
[2] = system: IL-1β

Compound	potency for inhibiting cell migration [1]	secretion of the pro-inflammatory cytokine IL-1β [2]	reduction of IL-1β secretion compared with DHA oxylipin derivative and indomethacin ([2]; comparison with DHA oxylipin derivative and indomethacin)	potency for reduction in IL-1β secretion ([2]; comparison with the DHA oxylipin)
CCCCCC(O)/C=C/C=C\C/C=C\C/C=C\C/C=C\CCC(=O)O (centres unmarked) [17-hydroxy DPAn-6]	more potent than the DHA-derived oxylipin	significantly reduced		
10,17-dihydroxy DPAn-6		significantly reduced	significantly larger than with that produced by either the DHA oxylipin derivative or the general anti-inflammatory agent, indomethacin	more potent than the DHA oxylipin
